How the values were obtained:
[1] = tested on: adjuvant-induced polyarthritis (Mycobacterium butyricum); assay: Modified developing adjuvant arthritis in rats (adjuvant-induced polyarthritis, AIP); format: in vivo, male Lewis rats; conditions: p.o., from d. 1-8
Method: A. Modified developing adjuvant arthritis in rats. This test is based on the procedure originally described by Pearson (Proc. Soc. Biol. Med., 1956, pp 91-5). Each experimental group used six male Lewis rats weighing approx. 250 gm. Arthritis was produced by a single intradermal injection of Mycobacterium butyricum (0.6 mg in 0.1 ml mineral oil) into the base of the tail. Test compounds were administered orally, once daily, starting on the day of inoculation (day 1) through day 8. The paw volume (average of two hind paws) was measured by the mercury displacement method at least twice weekly during the course of the experiment (40 to 42 days). The efficacy of a compound was expressed as the percent reduction of hind paw volume of treated vs. untreated rats using the following equation: [formula] PC=positive control (not treated, arthritic) NC=negative control (not treated, non-arthritic) RX=drug group (treated, arthritic) | ^(a) once daily, p.o., from d. 1-8. | ^(b) % Inhibition of paw edema: O = <25; + = 25-<40; ++ = 40-<60; +++ | = 60-80; ++++ = 80-100.

[2] = tested on: carrageenin-induced paw edema; assay: Carrageenin induced paw edema in the rat (CIP); format: in vivo, male Sprague Dawley rats; conditions: single oral dose of 50 mg/kg 30 min. prior to carrageenin injection; 4 hrs. after carrageenin injection
Method: B. Carrageenin induced paw edema in the rat.
This test is based on the procedure originally described by Holsapple and Yim (Inflammation, 1984, 8:223). Six male Sprague Dawley rats weighing approx. 300 gm were used in each experimental group. The rats had been starved for 24 hours prior to injection of 0.1 ml of 1% carrageenin into the plantar surface of the left hind paw. Test compounds were dosed orally 30 minutes prior to carrageenin administration. The volumes of the left hind paws were measured by mercury displacement at 2,4, and 6 hours following carrageenin injection. The efficacy of a compound was expressed as the percent inhibition of carrageenin injected paw volume as compared to non-injected paw using the following equation: [formula]
C=Vehicle control group (left paw volume-right paw volume)
RX=Drug treated group (left paw volume-right paw volume)
The peak of drug effects usually occurred 2-4 hours following carrageenin injection.
^(c) test compound administered as a single oral dose of 50 mg/kg 30
min. prior to carrageenin injection. % Inhibition determined 4 hrs. after
carrageenin injection; I = <25% reduction in paw volume and A =
≥25% reduction in paw volume.

[3] = tested on: adjuvant-induced arthritis; conditions: J. Med. Chem., 1979, 22:1385-9; cited from earlier work

Row | Compound | AIP Inhib. score d. 20-22 (% Inhibition of paw edema) ([1]; 50 mg/kg once daily) | AIP Inhib. score d. 40-42 (% Inhibition of paw edema) ([1]; 50 mg/kg once daily) | CIP (% Inhibition, reduction in paw volume) [2] | inhibition of adjuvant-induced arthritis in rats [3] | AIP Inhib. score d. 20-22 (% Inhibition of paw edema) ([1]; 100 mg/kg once daily) | AIP Inhib. score d. 40-42 (% Inhibition of paw edema) ([1]; 100 mg/kg once daily)
1 | CSC(=O)C(C#N)C(=O)Nc1ccc(C(F)(F)F)cc1 (stereo not drawn) [Example 1, β-Methylthio-β-oxo-α-(4-trifluoromethylphenyl)carbamoylpropionitrile] | ++++ (80-100) | ++++ (80-100) | A (≥25% reduction in paw volume) | – | – | –
2 | N#CCC(=O)c1ccccc1 [Benzoylacetonitrile (I), Benzoylacetonitrile] | – | – | – | effective inhibitors | – | –
3 | COC(=O)C(C#N)C(=O)Nc1ccc(C(F)(F)F)cc1 (stereo not drawn) [Example 2, βMethoxy-β-oxo-α-(4-trifluoromethylphenyl)carbamoylpropionitrile] | – | – | I (<25% reduction in paw volume) | – | +++ (60-80) | +++ (60-80)
4 | CNC(=O)C(C#N)C(=O)Nc1ccc(C(F)(F)F)cc1 (stereo not drawn) [Example 3, β-Methylamino-β-oxo-α-(4-trifluoromethylphenyl) carbamoylpropionitrile] | +++ (60-80) | +++ (60-80) | A (≥25% reduction in paw volume) | – | – | –

Reference: patent US4975462A, “Antiarthritic α-arylcarbamoyl cyanoacetic acid derivatives” (Bristol-Myers Company, priority 1988, dated 1990)
